Assay: gradient 5% acetonitrile 3 min, to 50% in 2 min, to 85% in 15 min, held 3 min, 100 µL/min
Details: column: Zorbax Extend-C18 2.1 x 50 mm; eluents: water / acetonitrile, 0.1% formic acid
Procedure, shortened: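 Retention time was recorded from adduct peaks, which were picked computationally and each inspected manually. Pure standards ran in mixtures of ~100 molecules on HPLC coupled to a quadrupole time-of-flight mass spectrometer, in positive and negative ionization mode, through a Zorbax Extend-C18 column (2.1 × 50 mm, 1.8 μm) at 100 μL/min. Eluents were water and acetonitrile, each with 0.1% formic acid.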

Structure (SMILES) | RP-LC retention time [s]
CC(C)CCNC(=O)C1CCN(Cc2cc3ccccc3n2Cc2cccc(Cl)c2)CC1 | 845
CCOC(=O)N1CCN(C(=O)CSc2ccc(-c3ccc(OC)cc3)nn2)CC1 | 716
CCOC(=O)c1[nH]c(C)c(C(=O)CN(CC2CCCO2)C(=O)c2ccc(F)cc2)c1C (stereo not drawn) | 800
CCN1CCN(c2ncc(C(=O)Nc3c(F)cc(F)cc3Br)c3ccccc23)CC1 | 581
CCCNC(=O)c1cc2c(-c3cccs3)nn(-c3ccccc3)c2n1C | 953
O=C(NCC1(c2ccc(F)cc2)CC1)c1ccsc1 | 821
O=C(c1cc(S(=O)(=O)N2CCCC(C(=O)N3CCCCC3)C2)c[nH]1)N1CCCC1 (stereo not drawn) | 716
CCN1c2ccc(F)cc2C(=O)NC12CCN(C(=O)c1ccccc1OC)CC2 | 759
Cc1sc2cc(C(=O)NCC3CC3)[nH]c2c1CN1CCCCC1 | 634
Cc1ccc(S(=O)(=O)N2CCCCCC2)cc1-c1nnc(-c2ccccc2)o1 | 1190
CCn1c(CCNC(=O)c2ccc(OC)c(F)c2)nc2cccnc21 | 622
CCCn1cc(SCC(N)=O)c2ccccc21 | 730
Cc1noc([C@@H]2CC(F)(F)CN2S(=O)(=O)c2cccc(F)c2)n1 | 891
CC(C)Cn1c(=O)c2cc(C(=O)N(C)CC(=O)N3CCCCCC3)nn2c2ccccc21 | 891
CCS(=O)(=O)c1nc2ccc(NS(=O)(=O)c3cc(Cl)ccc3OC)cc2s1 | 914
CSc1ccc(NC(=O)C2CC(=O)N(c3ccc4c(c3)CCN4C(C)=O)C2)cc1 (stereo not drawn) | 730
O=C(Nc1ccc(F)cc1)N1CCC(N2CCN(Cc3ccccc3)C(=O)C2=O)CC1 | 723
CN1c2cc(C(=O)Nc3cccc(C(F)(F)F)c3)ccc2C(=O)N2CCCCC21 (stereo not drawn) | 930
CCN1C(=O)COc2ccc(-c3noc(C4(c5ccc(OC)cc5)CC4)n3)cc21 | 1140
Cc1ccc(-c2nc(-c3cccc(-c4ccn[nH]4)c3)no2)cc1F | 915
CCOc1cccc(-c2noc(Cn3c(=O)n(-c4cccc(C)c4)c(=O)c4sccc43)n2)c1 | 1060
Cc1cc(N2CCN(C)CC2)nc2ccc(NC(=S)NCc3ccco3)cc12 | 564

Structure (SMILES) | RP-LC retention time [s]
O=c1c2oc3ccccc3c2ncn1Cc1nc(-c2ccc(F)c(Cl)c2)no1 | 1050
COc1ccc(NC(=O)CCc2nc(-c3ccc(N4CCCC4)cc3)no2)cc1OC | 936
CC(C)c1noc(C2CCCN(C(=O)NC(C)(C)C)CCC(=O)NCC2)n1 (stereo not drawn) | 690
CCOC(=O)c1ccc(N2C(=O)CC(NCCCN3CCN(CC)CC3)C2=O)cc1 (stereo not drawn) | 636
CCn1ccc(C(=O)NCC(=O)N2CCCc3ccccc32)n1 | 703
O=C(NCc1ccc(F)cc1)c1nc(Cn2c(=O)oc3ccc(Cl)cc32)no1 | 942
O=C(NCCc1c[nH]c2ccccc12)c1cccc(N2C(=O)CCS2(=O)=O)c1 | 749
O=C(CCCN1C(=O)CSc2ncccc21)N1CCN(c2ccccn2)CC1 | 559
Cc1cc(C(=O)N2CCCn3ccnc3C2C2CCCC2)n[nH]1 (stereo not drawn) | 584
CSc1cccc(NC(=O)Cn2nc3n(c2=O)CCCCC3)c1 | 707
CCOc1ccc(CNC(=O)C2CCN(c3cncnc3N3CCOCC3)CC2)cc1 | 635
Cc1nn(C)c(=O)c2cc(S(=O)(=O)NCc3ccco3)cn12 | 718
O=C(c1ccco1)N1CCN(c2ccc(=O)n(-c3ccc(Cl)cc3)n2)CC1 | 768
Cc1cccc(NC(=O)CSc2nc(=O)n(CCN(C)C)c3c2CCC3)c1 | 570
CN(C)C(=O)c1ccc2c(c1)n(Cc1cccc(F)c1)c(=O)c1ccnn12 | 801
CC(C)CC(NC(=O)Cc1ccccc1F)C(=O)Nc1nc2ccccc2[nH]1 (stereo not drawn) | 740
COc1cccc(S(=O)(=O)N2CCC3(CC2)NCCCN=C3NC2CCCCC2)c1 | 759
CCCn1cc(S(=O)(=O)Nc2ccccc2Cl)c2cccnc21 | 914
Cc1ccc(Cn2nc3c(S(=O)(=O)N4CCc5ccccc5C4)cccn3c2=O)cc1 | 941
Cc1ccc2nc(N3CCN(C)CC3)c(-c3noc(C)n3)cc2c1 | 645
CCOC(=O)c1ccsc1NC(=O)c1cc(C)nn1CC | 1080
COc1ccc(S(=O)(=O)CCC(=O)Nc2sc3c(c2C(N)=O)CCC(C)C3)cc1 (stereo not drawn) | 793

Structure (SMILES) | RP-LC retention time [s]
Cn1nc(-c2nnc(-c3ccc(F)cc3)o2)c2c1CCN(S(=O)(=O)Cc1ccccc1Cl)C2 | 970
CC1CCN(S(=O)(=O)c2cccnc2Nc2ccc(Cl)cc2)CC1 | 1370
O=C(CCC1CCN(c2cc(NC3CC3)ncn2)CC1)NCc1ccccc1Cl | 676
CCCNC(=O)C1CCCN(c2nnc(C)c3c(C)n(-c4ccc(Cl)cc4)nc23)C1 (stereo not drawn) | 693
Cc1ccc(C)c(-c2csc(Nc3ccc(S(=O)(=O)Nc4nc(C)cc(C)n4)cc3)n2)c1 | 1030
CCn1ccc2sc(C)c(C(=O)NCc3ccc(F)cc3)c2c1=O | 798
O=C1C(NS(=O)(=O)Cc2cc(F)cc(F)c2)CCN1c1ccccc1 (stereo not drawn) | 914
CCC(Sc1nc(=O)cc(N)n1CCc1ccccc1)C(=O)Nc1nc(-c2ccccc2)cs1 (stereo not drawn) | 878
O=C(c1c[nH]c2ccccc12)N1C[C@@H]2C[C@H]1C[C@@H]2NS(=O)(=O)c1ccccc1 | 679
CCc1nc(-c2csc(S(=O)(=O)N3CCCC(C(=O)Nc4cccc(Cl)c4C)C3)c2)no1 (stereo not drawn) | 1080
COC(=O)c1cccc(Nc2c(-c3ccc(SC)cc3)nc3cnccn23)c1 | 887
COc1ccc(CNC(=O)Cc2nnc(-c3ccccn3)o2)c(OC)c1 | 696
O=C(Nc1c(Cl)cncc1Cl)c1ccc(OC(F)F)c(OCC2CC2)c1 | 1020
O=S(=O)(c1cccc2nsnc12)N1CCCC(Cc2noc(C3CC3)n2)C1 (stereo not drawn) | 923
Oc1cccc2ccc(N3CCOCC3)nc12 | 547
CC(=O)OC1CCN(C(=O)C(C)(C)C)CC1 | 726
Cc1ccsc1C(=O)Nc1ccc(SCc2nnc(-c3ccc4c(c3)OCO4)o2)cc1 | 978
O=C(CCn1c(=O)oc2ccccc21)Nc1ccc(S(=O)(=O)Nc2nccs2)cc1 | 650
CCCCOC(=O)c1ccc(Nc2c(C(=O)N(CC)CC)cnc3nc(C)ccc23)cc1 | 720
CC(=O)Nc1ccc(NC(=S)NC(=O)c2ccc(C(C)(C)C)cc2)cc1 | 986
Cc1ccnc(Nc2nc(C)c(C(=O)N3CCC(C(N)=O)(N4CCCCC4)CC3)s2)c1 | 561
CCc1ccc(-c2cc(C(F)(F)F)on2)cc1S(=O)(=O)N1CCN(c2ncccn2)CC1 | 1230

Structure (SMILES) | RP-LC retention time [s]
O=C(COc1ccc(Cl)cc1Cl)NCc1ccsc1 | 920
Cc1ccc(-c2noc(Cn3ccn(-c4ccccc4)c(=O)c3=O)n2)cc1 | 844
CCNC(=O)N1[C@H]2CC[C@@H]1c1cnc(-c3ccc(F)cc3)nc1C2 | 768
Cc1ccc(-c2nc(C)cc(SCC(=O)Nc3ccccc3Br)n2)cc1 | 1290
CCc1ccccc1NC(=O)Cn1nc2cc(C)nc(-c3ccccc3)n2c1=O | 854
CC1CCN(S(=O)(=O)c2ccc3nn(Cc4c(F)cccc4Cl)c(=O)n3c2)CC1 | 1030
CCCCOc1ccc(C(=O)Nc2ccc(F)cc2F)cc1 | 1130
Cc1cccc(C)c1Nc1c(-c2ccc(Cl)cc2)nc2cnccn12 | 1030
Cc1ccc(CNC2=NCCNC23CCN(S(=O)(=O)c2ccc(C)cc2)CC3)cc1 | 736
COc1ccc(Cl)cc1NC(=O)c1c(O)c2cccc3c2n(c1=O)CC3 | 1330
CC1CCCC(NC(=O)Cn2nc(Cc3ccncc3)c3ccccc3c2=O)C1C (stereo not drawn) | 655
O=C(Nc1cccc(Cl)c1)C1CCCN(c2nc3ccsc3c(=O)n2Cc2ccc(F)cc2)C1 (stereo not drawn) | 1110
Cc1ccc2nc(-c3ccccc3NC(=O)c3ccc(Br)o3)[nH]c2c1 | 1140
O=C(NCC1CCCO1)c1nnn(-c2ccc(F)cc2)c1-c1ccncc1 (stereo not drawn) | 679
CCOc1ccc(NC(=O)N2CCN(c3ccc(=O)n(-c4ccc(C)cc4)n3)CC2)cc1 | 802
CN(C)C(=O)c1n[nH]c2c1CN(C(=O)c1cc(F)ccc1F)CC2 | 617
Cc1ccc(S(=O)(=O)N2CCC(n3cnc4ccc(C)cc4c3=O)CC2)c(C)c1 | 988
CCn1cc(-c2nc(C)c(C(=O)NC3CCCCC3)s2)c2cccnc21 | 988
CCc1cccc(NC(=O)Cn2c(=O)nc(N3CCC(C)CC3)c3ccccc32)c1 | 898
COc1cccc(C(=O)N2CCCn3nc(-c4cccs4)cc3C2)c1OC | 798
Cc1cc(C(=O)NCc2ccco2)c2c(=O)n(C)c(=O)n(C)c2n1 | 663
CCc1nc2cccnc2n1CCN1CCN(C(=O)Nc2ccc(C)cc2Cl)CC1 | 616
